In patent US20250206727A1, “HETEROCYCLIC SUBSTITUTED AROMATIC COMPOUND, PREPARATION METHOD THEREFOR, HERBICIDAL COMPOSITION AND APPLICATION” (QINGDAO KINGAGROOT CHEMICAL COMPOUND CO., LTD., priority 2022, published 2025):

What was measured:
Test in all cases: Post-emergence test on weeds (greenhouse, spray at 2-3 leaf stage)
Format in all cases: in vivo
Parameters in all cases: key: Level 10: completely dead; Level 9: growth control rate greater than or equal to 90% and less than 100%; Level 8: growth control rate greater than or equal to 80% and less than 90%; Level 7: growth control rate greater than or equal to 70% and less than 80%; Level 6: growth control rate greater than or equal to 60% and less than 70%; Level 5: growth control rate greater than or equal to 50% and less than 60%; Level 4: growth control rate greater than or equal to 40% and less than 50%; Level 3: growth control rate greater than or equal to 30% and less than 40%; Level 2: growth control rate greater than or equal to 20% and less than 30%; Level 1: growth control rate less than 20%; Level 0: no effect
Settings in all cases: 60 g a.i./ha, 3 weeks after application
[1] = system: Echinochloa crus-galli
From the text: (§1) The activity level criteria for plant damage (i.e., growth control rate) are as follows: • Level 10: completely dead; • Level 9: growth control rate greater than or equal to 90% and less than 100%; • Level 8: growth control rate greater than or equal to 80% and less than 90%; • Level 7: growth control rate greater than or equal to 70% and less than 80%; • Level 6: growth control rate greater than or equal to 60% and less than 70%; • Level 5: growth control rate greater than or equal to 50% and less than 60%; • Level 4: growth control rate greater than or equal to 40% and less than 50%; • Level 3: growth control rate greater than or equal to 30% and less than 40%; • Level 2: growth control rate greater than or equal to 20% and less than 30%; • Level 1: growth control rate less than 20%; • Level 0: no effect.
(§2) The above growth control rates are fresh weight control rates.
(§3) Monocotyledonous and dicotyledonous weed seeds (Descurainia sophia, Capsella bursa-pastoris, Abutilon theophrasti, Galium spurium, Stellaria media, Lithospermum arvense, Rorippa indica, Alopecurus aequalis, Alopecurus japonicus, Eleusine indica, Beckmannia syzigachne, Sclerochloa dura, Erigeron canadensis, Phleum paniculatum, Veronica polita, Bromus japonicus, Aegilops tauschii, Phalaris arundinacea, Amaranthus retrofexus, Chenopodium, Commelina communis, Cichorium endivia, Convolvulus arvensis, Cirsium arvense, Solanum nigrum, Acalypha australis, Digitaria sanguinalis, Echinochloa crus-galli, Setaria viridis, Setaa pumila, Lepochloa chinensis, Monochona vaginalis, Sagitta trifolia, Schoenoplectiella juncoides, Cypenus rotundus, Cyperus ira, Cyperus difformis, Fimbristylis, Portulaca oleracea, Xanthium sibiricum, Ipomoea nil, Eschenbachia japonica, etc.) and major crop seeds (wheat, maize, paddy rice, soybean, cotton, oilseed rape, millet, sorghum, potato, sesame, castor plant, etc.) were placed in plastic pots filled with soil and then covered with 0.5-2 cm of soil to allow them to grow in a favorable greenhouse environment. Two weeks after sowing, the test plants were treated at the stage of 2-3 leaves. The test compounds of the present invention were individually dissolved with acetone, then added with Tween® 80, with 1.5 L/ha of methyl oleate emulsifiable concentrate as a synergist, diluted into solutions of certain concentrations using certain amount of water, and sprayed to the plants using a spray tower. After drug application, the experimental results on weeds were collected after 3 weeks of cultivation in a greenhouse. The compounds were applied at 500, 250, […], 15, and 7.5 g a.i./ha in triplicate, and the results were averaged.

[2] = system: Amaranthus retroflexus
From the text: as §1, §2, §3

[3] = system: Digitaria sanguinalis
From the text: as §1, §2, §3

[4] = system: Veronica polita
From the text: as §1, §2, §3

[5] = system: Abutilon theophrasti
From the text: as §1, §2, §3

[6] = system: Setaria viridis
From the text: as §1, §2, §3

CC1(C(=O)OCc2ccccc2F)ON=C(c2cc(-c3ncc(C(F)(F)F)cc3Cl)c(F)cc2Cl)O1 (racemic) [Compound 133]
10: activity level (fresh weight growth control rate), Echinochloa crus-galli [1] | activity level (fresh weight growth control rate), Amaranthus retroflexus [2] | activity level (fresh weight growth control rate), Digitaria sanguinalis [3] | activity level (fresh weight growth control rate), Veronica polita [4] | activity level (fresh weight growth control rate), Abutilon theophrasti [5] | activity level (fresh weight growth control rate), Setaria viridis [6]

CC(C)=NOC(=O)C1(C)ON=C(c2cc(-c3ncc(C(F)(F)F)cc3Cl)c(F)cc2Cl)O1 (racemic) [Compound 137]
10: activity level (fresh weight growth control rate), Echinochloa crus-galli [1] | activity level (fresh weight growth control rate), Amaranthus retroflexus [2] | activity level (fresh weight growth control rate), Digitaria sanguinalis [3] | activity level (fresh weight growth control rate), Veronica polita [4] | activity level (fresh weight growth control rate), Abutilon theophrasti [5] | activity level (fresh weight growth control rate), Setaria viridis [6]

CC(=NOC(=O)C1(C)ON=C(c2cc(-c3ncc(C(F)(F)F)cc3Cl)c(F)cc2Cl)O1)C(F)(F)F (racemic) [Compound 139]
10: activity level (fresh weight growth control rate), Echinochloa crus-galli [1] | activity level (fresh weight growth control rate), Amaranthus retroflexus [2] | activity level (fresh weight growth control rate), Digitaria sanguinalis [3] | activity level (fresh weight growth control rate), Veronica polita [4] | activity level (fresh weight growth control rate), Abutilon theophrasti [5] | activity level (fresh weight growth control rate), Setaria viridis [6]

CCOC(C)=NOC(=O)C1(C)ON=C(c2cc(-c3ncc(C(F)(F)F)cc3Cl)c(F)cc2Cl)O1 (racemic) [Compound 141]
10: activity level (fresh weight growth control rate), Echinochloa crus-galli [1] | activity level (fresh weight growth control rate), Amaranthus retroflexus [2] | activity level (fresh weight growth control rate), Digitaria sanguinalis [3] | activity level (fresh weight growth control rate), Veronica polita [4] | activity level (fresh weight growth control rate), Abutilon theophrasti [5] | activity level (fresh weight growth control rate), Setaria viridis [6]

CC1(C(=O)ON=Cc2ccco2)ON=C(c2cc(-c3ncc(C(F)(F)F)cc3Cl)c(F)cc2Cl)O1 (racemic) [Compound 143]
10: activity level (fresh weight growth control rate), Echinochloa crus-galli [1] | activity level (fresh weight growth control rate), Amaranthus retroflexus [2] | activity level (fresh weight growth control rate), Digitaria sanguinalis [3] | activity level (fresh weight growth control rate), Veronica polita [4] | activity level (fresh weight growth control rate), Abutilon theophrasti [5] | activity level (fresh weight growth control rate), Setaria viridis [6]

Cc1ccc(C=NOC(=O)C2(C)ON=C(c3cc(-c4ncc(C(F)(F)F)cc4Cl)c(F)cc3Cl)O2)s1 (racemic) [Compound 144]
10: activity level (fresh weight growth control rate), Echinochloa crus-galli [1] | activity level (fresh weight growth control rate), Amaranthus retroflexus [2] | activity level (fresh weight growth control rate), Digitaria sanguinalis [3] | activity level (fresh weight growth control rate), Veronica polita [4] | activity level (fresh weight growth control rate), Abutilon theophrasti [5] | activity level (fresh weight growth control rate), Setaria viridis [6]

CC1(C(=O)ON=C2CCCC2)ON=C(c2cc(-c3ncc(C(F)(F)F)cc3Cl)c(F)cc2Cl)O1 (racemic) [Compound 145]
10: activity level (fresh weight growth control rate), Echinochloa crus-galli [1] | activity level (fresh weight growth control rate), Amaranthus retroflexus [2] | activity level (fresh weight growth control rate), Digitaria sanguinalis [3] | activity level (fresh weight growth control rate), Veronica polita [4] | activity level (fresh weight growth control rate), Abutilon theophrasti [5] | activity level (fresh weight growth control rate), Setaria viridis [6]

CC1(C(=O)ON=C(c2ccccc2)c2ccccc2)ON=C(c2cc(-c3ncc(C(F)(F)F)cc3Cl)c(F)cc2Cl)O1 (racemic) [Compound 146]
10: activity level (fresh weight growth control rate), Echinochloa crus-galli [1] | activity level (fresh weight growth control rate), Amaranthus retroflexus [2] | activity level (fresh weight growth control rate), Digitaria sanguinalis [3] | activity level (fresh weight growth control rate), Veronica polita [4] | activity level (fresh weight growth control rate), Abutilon theophrasti [5] | activity level (fresh weight growth control rate), Setaria viridis [6]

Cc1cc(C)n(C(=O)C2(C)ON=C(c3cc(-c4ncc(C(F)(F)F)cc4Cl)c(F)cc3Cl)O2)n1 (racemic) [Compound 156]
10: activity level (fresh weight growth control rate), Echinochloa crus-galli [1] | activity level (fresh weight growth control rate), Amaranthus retroflexus [2] | activity level (fresh weight growth control rate), Digitaria sanguinalis [3] | activity level (fresh weight growth control rate), Veronica polita [4] | activity level (fresh weight growth control rate), Abutilon theophrasti [5] | activity level (fresh weight growth control rate), Setaria viridis [6]

CC(=NOC(=O)C1(C)ON=C(c2cc(-c3ncc(C(F)(F)F)cc3Cl)c(F)cc2Cl)O1)C1CC1 (racemic) [Compound 172]
10: activity level (fresh weight growth control rate), Echinochloa crus-galli [1] | activity level (fresh weight growth control rate), Amaranthus retroflexus [2] | activity level (fresh weight growth control rate), Digitaria sanguinalis [3] | activity level (fresh weight growth control rate), Veronica polita [4] | activity level (fresh weight growth control rate), Abutilon theophrasti [5] | activity level (fresh weight growth control rate), Setaria viridis [6]

CC1(C(=O)O)ON=C(c2cc(-c3ncc(C(F)(F)F)cc3Cl)c(F)cc2Cl)O1 (stereo not drawn) [Compound 1]
10: activity level (fresh weight growth control rate), Echinochloa crus-galli [1] | activity level (fresh weight growth control rate), Amaranthus retroflexus [2] | activity level (fresh weight growth control rate), Digitaria sanguinalis [3] | activity level (fresh weight growth control rate), Veronica polita [4] | activity level (fresh weight growth control rate), Abutilon theophrasti [5] | activity level (fresh weight growth control rate), Setaria viridis [6]

COC(=O)C1ON=C(c2cc(-c3ncc(C(F)(F)F)cc3Cl)c(F)cc2Br)O1 (stereo not drawn) [Compound 2]
10: activity level (fresh weight growth control rate), Echinochloa crus-galli [1] | activity level (fresh weight growth control rate), Amaranthus retroflexus [2] | activity level (fresh weight growth control rate), Digitaria sanguinalis [3] | activity level (fresh weight growth control rate), Veronica polita [4] | activity level (fresh weight growth control rate), Abutilon theophrasti [5] | activity level (fresh weight growth control rate), Setaria viridis [6]
